Assay results published in patent US20250059201A1, “CAMPTOTHECIN COMPOUND AND CONJUGATE THEREOF” (priority 2021, published 2025).
Several values for one entry are separate records, joined by “and”; a condition that tells them apart may be missing. Identical values can stand only once. Like-named read-outs stand apart in the source and are kept apart here.

Key:
[1] = test system: NCI-N87 human gastric cancer cells; test: Comparative study of the activity of camptothecins (CCK-8 cell killing); assay type: cell-based
Method: (§1) KB oral epithelial cancer cells (purchased from: ATCC) were cultured in DMEM medium supplemented with 10% FBS; NCI-N87 human gastric cancer cells (purchased from: ATCC) were cultured in RPMI1640 medium supplemented with 10% FBS; HT29 human colon cancer cells (purchased from: ATCC) were cultured in RPMI1640 medium supplemented with 10% FBS; and BxPC-3 human pancreatic adenocarcinoma cells (purchased from: ATCC) were cultured in RPMI1640 medium supplemented with 10% FBS.
(§2) Using corresponding media described above and in cell plates, the density of KB cells was adjusted to 2×10^4/mL; the density of NCI-N87 cells was adjusted to 5×10^4/mL; the density of HT29 cells was adjusted to 5×10^4/mL, and the cells were plated onto 96-well transparent flat bottom plates, at 100 µL/well, and cultured overnight; and the density of BxPC-3 cells was adjusted to 5×10^4/mL.
(§3) Samples to be detected were diluted to 20 μM with corresponding media, then 5-fold gradient dilution was performed, and 9 concentrations were obtained. A well having cells but with no any sample added was set as the well showing maximum cell growth; and a well having no cells was set as the well of medium background. The diluted samples were added into the cell plates, at 100 μL/well, which were then incubated in a C02 incubator for 96 hours. After the incubation, CCK-8 (purchased from: DOJINDO LABORATORIES) prepared beforehand was added into the plates, at 20 μL/well, and after further 3 hours incubation in the C02 incubator, […] were read on a microplate reader.
(§4) Data obtained was fitted to a four-parameter curve using software Prism7, and equation for calculating maximum killing is: maximum killing (%)=1−(OD450 value of the well showing maximum killing—OD450 value of the well of medium background)/(OD450 value of the well showing maximum cell growth—OD450 value of the cell of medium background)[…].

[2] = test system: BxPC-3 human pancreatic adenocarcinoma cells; test: as above; assay type: cell-based; details: for Emax: read-out: Maximum Killing (%), BxPC-3, killing days 4 days
Method: as §1, §2, §3, §4

[3] = test system: HT29 human colon cancer cells; test: as above; assay type: cell-based; details: HT29, killing days 4 days
Method: as §1, §2, §3, §4

[4] = test system: KB oral epithelial cancer cells; test: as above; assay type: cell-based; details: killing days 4 days
Method: as §1, §2, §3, §4

Trop-2 on BxPC-3 cells [5] = target: T1, Trop-2 on BxPC-3 cells (human, UniProt P09758 27-323); test: flow cytometry, fluorescently labeled drug on BxPC-3 cells, on ice 1 h (mean ± SD, n = 2)
T1 construct: whole, on cells; also called Trop-2-positive BxPC-3 tumor cells
T1 sequence (looked up): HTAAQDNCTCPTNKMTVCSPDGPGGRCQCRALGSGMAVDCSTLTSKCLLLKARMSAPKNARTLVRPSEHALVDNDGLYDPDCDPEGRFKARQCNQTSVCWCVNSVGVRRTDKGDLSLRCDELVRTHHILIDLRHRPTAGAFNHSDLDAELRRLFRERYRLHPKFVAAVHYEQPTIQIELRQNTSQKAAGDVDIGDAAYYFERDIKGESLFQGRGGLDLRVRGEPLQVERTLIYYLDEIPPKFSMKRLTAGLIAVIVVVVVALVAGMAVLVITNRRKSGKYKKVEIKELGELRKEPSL
Method: (§5) Different concentrations (1, 3, 10, 30, 100, 300, 1000, 3000, 10000, 30000, and 100000 ng/mL) of fluorescently labeled Trop2-ADC-14 and the mAb in Trop2-ADC-14 (i.e., antibody h23-12) were incubated with BxPC-3 cells (purchased from: ATCC) on ice for 1 hour in dark, and then the cells were centrifuged to remove supernatant, washed with PBS, re-suspended, and the fluorescence intensity of the drugs bound to the cells was measured with a flow cytometer (BD ACCURI C6 PLUS). The experiment was repeated once.

Trop-2 on BxPC-3 cells [6] = target: T1, Trop-2 on BxPC-3 cells; test: flow cytometry, fluorescently labeled antibody on BxPC-3 cells, on ice 1 h (mean ± SD, n = 2)
Method: as §5

[7] = Homo sapiens, NCI-N87, 96 h, read-out: Maximum Killing (%), NCI-N87, killing days 4 days
[8] = Homo sapiens, BXPC-3, 96 h, BxPC-3, killing days 4 days

Molecule | Emax [1, 7] | Emax ([2]; Homo sapiens, BXPC-3, 96 h) | other results
CC[C@@]1(O)C(=O)OCc2c1cc1n(c2=O)Cc2c-1nc1ccc(N)c3c1c2C(C)(C)CC3 [Compound 1] | 92.1% |  | 
CC[C@@]1(O)C(=O)OCc2c1cc1n(c2=O)Cc2c-1nc1ccc(N)c3c1c2C1CC1C3 (some centres unmarked) [Compound 7] | 87.9% | 94.4% | 
CC[C@@]1(O)C(=O)OCc2c1cc1n(c2=O)Cc2c-1nc1ccc(N)c3c1c2CCS3 [Compound 12] | 94.9% | 98.5% | 
CC[C@@]1(O)C(=O)OCc2c1cc1n(c2=O)Cc2c-1nc1ccc(N)c3c1c2C(F)(F)CS3 [Compound 13] |  | 98.9% | EC50 [2, 8]: 1.41 nM
CC[C@@]1(O)C(=O)OCc2c1cc1n(c2=O)Cc2c-1nc1ccc(N)c3c1c2CC[S@+]3[O-] [Compound 14-P1] | 42.5% | 38.8% | 
CC[C@@]1(O)C(=O)OCc2c1cc1n(c2=O)Cc2c-1nc1ccc(N)c3c1c2CC[S@@+]3[O-] [Compound 14-P2] | 68.4% | 43.3% | 
CC[C@@]1(O)C(=O)OCc2c1cc1n(c2=O)Cc2c-1nc1ccc(N)c3c1c2CCO3 [Compound 14] |  | 84.7% | EC50 [2, 8]: 6.46 nM
CC[C@@]1(O)C(=O)OCc2c1cc1n(c2=O)Cc2c-1nc1ccc(N)c3c1c2CCS3(=O)=O [Compound 15] | 83.6% | 87.9% | 
CCC1(O)CC(=O)OCc2c1cc1n(c2=O)Cc2c-1nc1ccc(N)c3c1c2CCC3 (centres unmarked) [Compound 17] |  |  | EC50 ([1]; Homo sapiens, 96 h, NCI-N87, killing days 4 days, read-out: EC50): 7.43 nM; Emax ([1]; Homo sapiens, 96 h, NCI-N87, killing days 4 days, read-out: Maximum Killing (%)): 87.6%
CC[C@@]1(O)C(=O)OCc2c1cc1n(c2=O)Cc2c-1nc1cc(F)c(N)c3c1c2CCO3 [Compound 18] | 92.9% | 99.6% | 
CC[C@@]1(O)C(=O)OCc2c1cc1n(c2=O)Cc2c-1nc1cc(F)c(N)c3c1c2C(F)(F)CO3 [Compound 19] |  | 97.4% | 
CC[C@@]1(O)C(=O)OCc2c1cc1n(c2=O)Cc2c-1nc1cc(F)c(N)c3c1c2C(F)(F)CC3 [Compound 20] | 93.2% | 99.2% | EC50 [2, 8]: 0.683 nM; EC50 ([1]; Homo sapiens, NCI-N87, 96 h, NCI-N87, killing days 4 days): 0.059 nM
CC[C@@]1(O)C(=O)OCc2c1cc1n(c2=O)Cc2c-1nc1cc(F)c(N)c3c1c2CCS3 [Compound 26] | 93.4% | 99.1% | 
CC[C@@]1(O)C(=O)OCc2c1cc1n(c2=O)Cc2c-1nc1cc(F)c(N)c3c1c2C(F)(F)CS3 [Compound 27] | 90.6% | 97.7% | 
CC[C@@]1(O)C(=O)OCc2c1cc1n(c2=O)Cc2c-1nc1ccc(N)c3c1c2C(F)(F)CO3 [Compound 31] | 90.7% | 93.7% | 
CC[C@@]1(O)C(=O)OCc2c1cc1n(c2=O)Cc2c-1nc1cc(F)c(C)c3c1c2[C@@H](NC(=O)CO)CC3 [Dxd] |  |  | EC50 [3]: 127 nM and 133 nM; Maximum Killing (%) [3]: 87.4% and 85.4%; Maximum Killing (%) ([2]; BxPC-3, killing days 4 days): 91.8%; EC50 ([2]; BxPC-3, killing days 4 days, read-out: EC50): 24.3 nM; Maximum Killing (%) ([1]; NCI-N87, killing days 4 days): 92.8% and 92.7% and 94.6%; Maximum Killing (%) [4]: 94.7% and 94.9%
CC[C@@]1(O)C(=O)OCc2c1cc1n(c2=O)Cc2c-1nc1ccc(N)c3c1c2CCC3 [MWC-1, reference compound] | 93.4% |  | EC50 [3]: 8.68 nM; EC50 ([3]; Homo sapiens, HT-29, 96 h): 9.89 nM; EC50 ([1]; Homo sapiens, NCI-N87, 96 h, NCI-N87, killing days 4 days, read-out: EC50): 4.44 nM; EC50 ([1]; NCI-N87, killing days 4 days, read-out: EC50): 5.22 nM; EC50 ([4]; 96 h): 14.8 nM
Trop2-ADC-14 (antibody, human IgG1, kappa, V domains shown, drug-containing linker MWF-L6 (Compound 3 payload) bridged on cysteines of the reduced disulfide bonds, DAR 4.1; positions not given, Antibody-drug conjugate: antibody h23-12 with MWF-L6, site-specific bridged conjugation, DAR 4.1; also called ADC 1o; h23-12 conjugated with drug-containing linker MWF-L6) VH: QVQLVQSGAEVKKPGASVKVSCKASGYTFTSYWMHWVRQAPGQGLEWMGEITPSDNYGSYNQKFKGRVTITRDTSTSTAYMELSSLRSEDTAVYYCARGHGNYVSFDYWGQGTLVTVSS VL: DIQMTQSPSSLSASVGDRVTITCRASQDISNYLNWYQQKPGKAPKLLIYYTSRLESGVPSRFSGSGSGTDFTLTISSLQPEDFATYFCQQGYTLPPYTFGQGTKLEIKR |  |  | EC50 (Trop-2 on BxPC-3 cells [5]): 1.3 µg/mL
Antibody h23-12 (antibody, human IgG1, kappa, V domains shown, Monoclonal antibody; also called the mAb in Trop2-ADC-14; anti-Trop-2 antibody h23-12) VH: QVQLVQSGAEVKKPGASVKVSCKASGYTFTSYWMHWVRQAPGQGLEWMGEITPSDNYGSYNQKFKGRVTITRDTSTSTAYMELSSLRSEDTAVYYCARGHGNYVSFDYWGQGTLVTVSS VL: DIQMTQSPSSLSASVGDRVTITCRASQDISNYLNWYQQKPGKAPKLLIYYTSRLESGVPSRFSGSGSGTDFTLTISSLQPEDFATYFCQQGYTLPPYTFGQGTKLEIKR |  |  | EC50 (Trop-2 on BxPC-3 cells [6]): 1.14 µg/mL
